Test results taken from patent US7199154B2, “Nitric oxide releasing prodrugs of diaryl-2-(5h)-furanones as cyclooxygenase-2 inhibitors” (Merck Frosst Company, priority 2002, dated 2007).

How the values were obtained:
Paw Edema = assay: Rat paw edema assay (carrageenan); assay type: in vivo; conditions: male Sprague-Dawley rats, 3 hr after carrageenan
Protocol: Male Sprague-Dawley rats (150–200 g) are fasted overnight and are given p.o., either vehicle (1% methocell) or a test compound in the morning. One hr later, a line drawn using a permanent marker at the level above the ankle in one hind paw to define the area of the paw to be monitored. The paw volume (VOh) is measured using a plethysmometer (Ugo-Basile, Italy) based on the principle of water displacement. The animals are then injected subplantarly with 50 ul of a 1% carrageenan solution in saline (sigma Chem) into the paw using an insulin syringe with a 25-gauge needle (i.e. 500 ug carrageenan per paw). Three hr later, the paw volume (V3h) is measured and the increases in paw volume (V3h−VOh) are calculated. Paw edema data are the compared with the vehicle-control group and percent inhibitions calculated taking the values in the control group as 100%. All treatment groups are coded to eliminate observer bias.

microsomal human COX-1 = molecular target: T1, microsomal human COX-1 (Homo sapiens, UniProt P23219); assay: Microsomal cyclooxygenase assay, COX-1; assay type: biochemical; conditions: microsomal fraction, PGE2 by EIA; read-out: IC50 against microsomal human COX-1
T1 construct: from which microsomes are prepared for microsomal assays, are human osteosarcoma 143 cells; endogenous in cells; host or cells: human U-937 cells (microsomal fraction)
Protocol: (§1) Compounds are tested as inhibitors of cyclooxygenase activity in whole cell and microsomal cyclooxygenase assays. Both of these assays measure prostaglandin E2 (PGE2) synthesis in response to arachidonic acid, using a radioimmunoassay. Cells used for whole cell assays, and from which microsomes are prepared for microsomal assays, are human osteosarcoma 143 cells (which specifically express cyclooxygenase-2) and human U-937 cells (which specifically express cyclooxygenase-1). In these assays, 100% activity is defined as the difference between prostaglandin E2 synthesis in the absence and presence of arachidonate addition. IC50 values represent the concentration of putative inhibitor required to return PGE2 synthesis to 50% of that obtained as compared to the uninhibited control.
(§2) Cox microsomal fractions are prepared as previously described (Percival et al., Arch. Biochem. Biophys. (1994) 315:111–118). The enzyme reactions are performed in 50 mM KPi pH 8.0, 1 μM heme, 1 mM phenol supplemented with 10 μg/ml of each Cox-1 or Cox-2 microsomal fractions. 1 μl DMSO or test compound (100 fold stock concentrated in DMSO) are added to 100 μl buffer. The enzyme reaction is initiated 15 minutes later by the addition of 10 μl of 100 μM arachidonic acid. […] PGE2 levels are then determined by EIA (Assay Designs) using the manufacturer's instruction.

microsomal human COX-2 = molecular target: T2, microsomal human COX-2 (Homo sapiens, UniProt P35354); assay: Microsomal cyclooxygenase assay, COX-2; assay type: biochemical; conditions: microsomal fraction, PGE2 by EIA; read-out: IC50 against microsomal human COX-2
T2 construct: from which microsomes are prepared for microsomal assays, are human osteosarcoma 143 cells; endogenous in cells; host or cells: human osteosarcoma 143 cells (microsomal fraction)
T2 sequence (P35354 18-604): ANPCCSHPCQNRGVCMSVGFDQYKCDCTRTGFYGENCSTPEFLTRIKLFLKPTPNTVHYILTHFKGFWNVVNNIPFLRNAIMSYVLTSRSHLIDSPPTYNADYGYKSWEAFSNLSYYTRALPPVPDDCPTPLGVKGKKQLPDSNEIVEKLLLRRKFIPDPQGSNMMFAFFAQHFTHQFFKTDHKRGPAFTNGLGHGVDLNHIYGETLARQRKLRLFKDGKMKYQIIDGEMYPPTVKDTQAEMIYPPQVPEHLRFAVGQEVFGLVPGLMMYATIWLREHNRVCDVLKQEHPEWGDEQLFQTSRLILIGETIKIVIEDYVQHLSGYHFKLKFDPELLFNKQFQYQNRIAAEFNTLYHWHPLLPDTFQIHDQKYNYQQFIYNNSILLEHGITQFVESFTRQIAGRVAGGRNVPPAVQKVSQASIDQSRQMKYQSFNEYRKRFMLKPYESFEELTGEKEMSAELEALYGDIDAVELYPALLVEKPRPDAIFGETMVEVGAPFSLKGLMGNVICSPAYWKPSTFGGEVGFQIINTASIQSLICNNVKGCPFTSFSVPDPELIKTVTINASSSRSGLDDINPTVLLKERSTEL
Protocol: as §1, §2

T1 sequence (P23219 24-599): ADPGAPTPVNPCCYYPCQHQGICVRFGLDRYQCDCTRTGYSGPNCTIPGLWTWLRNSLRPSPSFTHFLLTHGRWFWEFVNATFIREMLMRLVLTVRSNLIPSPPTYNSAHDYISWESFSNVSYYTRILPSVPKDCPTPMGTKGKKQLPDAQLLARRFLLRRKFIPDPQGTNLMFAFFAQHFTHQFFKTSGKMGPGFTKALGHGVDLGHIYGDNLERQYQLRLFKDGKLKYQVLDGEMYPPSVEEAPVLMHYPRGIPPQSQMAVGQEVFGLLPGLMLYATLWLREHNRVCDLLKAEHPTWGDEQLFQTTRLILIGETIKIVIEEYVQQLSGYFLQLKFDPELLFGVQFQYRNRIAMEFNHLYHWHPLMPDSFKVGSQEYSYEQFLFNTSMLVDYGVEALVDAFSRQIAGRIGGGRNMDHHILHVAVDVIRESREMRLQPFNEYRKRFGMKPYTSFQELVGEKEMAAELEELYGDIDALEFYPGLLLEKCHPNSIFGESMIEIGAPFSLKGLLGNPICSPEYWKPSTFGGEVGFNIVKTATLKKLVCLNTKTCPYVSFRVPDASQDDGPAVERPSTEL

IC50 (microsomal human COX-1)	IC50 (microsomal human COX-2)	SMILES	Paw Edema (% inhibition) (Paw Edema; dose 1 mg/kg p.o.)	Paw Edema (% inhibition) (Paw Edema; dose 3 mg/kg p.o.)	Paw Edema (% inhibition) (Paw Edema; dose 10 mg/kg p.o.)	Paw Edema (% inhibition) (Paw Edema; dose 30 mg/kg p.o.)
		COC(=O)/C(=C(\COC(=O)OCCCCO[N+](=O)[O-])c1ccc(S(C)(=O)=O)cc1)c1ccccc1 [Example 3, methyl (2Z)-3-[4-(methylsulfonyl)phenyl]-4-({[4-(nitrooxy)butoxy]carbonyl}oxy)-2-phenylbut-2-enoate]	42%	51%	68%	79%
> 100 µM	> 100 µM	CCOC(=O)/C(=C(\COC(=O)OCCCCCCO[N+](=O)[O-])c1ccc(S(C)(=O)=O)cc1)c1ccccc1 [Example 9, Ethyl (2Z)-3-[4-(methylsulfonyl)phenyl]-4-[({[6-(nitrooxy)hexyl]oxy}carbonyl)oxy]-2-phenylbut-2-enoate]				
